Test results published in patent US11795152B2, “Crystal form of tafamidis and preparation method therefor and use thereof” (CRYSTAL PHARMACEUTICAL (SUZHOU) CO., LTD., priority 2019, dated 2023).

Tests used:
Type in all cases: physicochemical
[1] = Grinding stability (XRPD before and after grinding); conditions: manually ground in the mortar for five minutes
Text: A certain amount of Form CSV and WO2016038500 Form 1 were manually ground in the mortar for five minutes.

[2] = Compressibility (manual tablet press, tensile strength); conditions: 80 mg, φ6 mm round tooling, 10 KN
Protocol: An ENERPAC manual tablet press was used for tableting. […] Diameter (D) and thickness (L) were tested with a caliper. Hardness (H) was tested with an intelligent tablet hardness tester. Tensile strength of the powder was calculated with the following formula: T=2H/πDL*9.8. Under a certain force, the greater the tensile strength, the better the compressibility.
Diameter (D) and thickness (L) were tested with a caliper. Hardness (H) was tested with an intelligent tablet hardness tester. Tensile strength of the powder was calculated with the following formula: T=2H/πDL*9.8. Under a certain force, the greater the tensile strength, the better the compressibility.

[3] = Dissolution profile of capsules in pH6.8 PBS; conditions: capsule 61 mg, paddle 50 rpm, 37° C.
Protocol: The cumulative dissolution was measured at different time in pH6.8 PBS.

[4] = Dissolution profile of tablets in pH6.8 PBS+1% Tween 80; conditions: tablet 61 mg, paddle 75 rpm, 37° C.
Protocol: (§1) The cumulative dissolution was measured at different time in pH6.8 PBS+1% Tween 80 and pH6.8 PBS+3% Tween 80. The dissolution results are presented in Table 24 (FIG. 23) and Table 25 (FIG. 24).
The cumulative dissolution was measured at different time in pH6.8 PBS+1% Tween 80.

[5] = Dissolution profile of tablets in pH6.8 PBS+3% Tween 80; conditions: tablet 61 mg, paddle 75 rpm, 37° C.
Protocol: as §1

[6] = Adhesiveness (material sticking to the punch); conditions: 30 mg, φ8 mm round tooling, 10 KN held for 30 s
Protocol: The punch was weighed and amount of material sticking to the punch was calculated. The compression was repeated twice and the cumulative amount, maximum amount and average amount of material sticking to the punch during the compression were recorded.

[7] = Stability of crystalline form of Compound I in WO2019175263 in drug product formulation process; conditions: formulation of Table 34, stirring at room temperature
Text: The crystalline form of Compound I in WO2019175263 was made into drug products according to the formulation and preparation process in Table 34 and Table 35. The XRPD patterns were collected before and after the formulation process. […] Form change occurred during stirring at room temperature.

Compound: O=C(O)c1ccc2nc(-c3cc(Cl)cc(Cl)c3)oc2c1 [WO2016038500 Form 1, reference compound]
- crystallinity after grinding [1]: decreases
- Hardness ([2]; 24 hours recovery): 2.32 kgf
- Tensile strength ([2]; T=2H/πDL*9.8): 1.78 MPa
- Cumulative drug release (%) ([3]; 0 min): 0.0%
- Cumulative drug release (%) ([3]; 5 min): 14.0%
- Cumulative drug release (%) ([3]; 10 min): 27.3%
- Cumulative drug release (%) ([3]; 15 min): 29.1%
- Cumulative drug release (%) ([3]; 20 min): 28.1%
- Cumulative drug release (%) ([3]; 30 min): 27.6%
- Cumulative drug release (%) ([3]; 45 min): 26.8%
- Cumulative drug release (%) ([3]; 60 min): 21.8%
- Cumulative drug release in pH 6.8 PBS + 1% Tween 80 (%) ([4]; 0 min): 0.0%
- Cumulative drug release in pH 6.8 PBS + 1% Tween 80 (%) ([4]; 5 min): 4.0%
- Cumulative drug release in pH 6.8 PBS + 1% Tween 80 (%) ([4]; 10 min): 10.4%
- Cumulative drug release in pH 6.8 PBS + 1% Tween 80 (%) ([4]; 15 min): 15.6%
- Cumulative drug release in pH 6.8 PBS + 1% Tween 80 (%) ([4]; 20 min): 19.5%
- Cumulative drug release in pH 6.8 PBS + 1% Tween 80 (%) ([4]; 30 min): 25.7%
- Cumulative drug release in pH 6.8 PBS + 1% Tween 80 (%) ([4]; 45 min): 33.0%
- Cumulative drug release in pH 6.8 PBS + 1% Tween 80 (%) ([4]; 60 min): 38.4%
- Cumulative drug release in pH 6.8 PBS + 1% Tween 80 (%) ([4]; 90 min): 46.8%
- Cumulative drug release in pH 6.8 PBS + 1% Tween 80 (%) ([4]; 120 min): 53.3%
- Cumulative drug release in pH 6.8 PBS + 1% Tween 80 (%) ([4]; 150 min): 61.4%
- Cumulative drug release in pH 6.8 PBS + 3% Tween 80 (%) ([5]; 0 min): 0.0%
- Cumulative drug release in pH 6.8 PBS + 3% Tween 80 (%) ([5]; 5 min): 22.7%
- Cumulative drug release in pH 6.8 PBS + 3% Tween 80 (%) ([5]; 10 min): 33.1%
- Cumulative drug release in pH 6.8 PBS + 3% Tween 80 (%) ([5]; 15 min): 39.7%
- Cumulative drug release in pH 6.8 PBS + 3% Tween 80 (%) ([5]; 20 min): 45.0%
- Cumulative drug release in pH 6.8 PBS + 3% Tween 80 (%) ([5]; 30 min): 52.5%
- Cumulative drug release in pH 6.8 PBS + 3% Tween 80 (%) ([5]; 45 min): 60.5%
- Cumulative drug release in pH 6.8 PBS + 3% Tween 80 (%) ([5]; 60 min): 65.9%
- Cumulative drug release in pH 6.8 PBS + 3% Tween 80 (%) ([5]; 90 min): 73.0%
- Cumulative drug release in pH 6.8 PBS + 3% Tween 80 (%) ([5]; 120 min): 77.2%
- Average amount (mg) of material sticking to the punch [6]: 0.265 mg

Compound: O=C(O)c1ccc2nc(-c3cc(Cl)cc(Cl)c3)oc2c1
- stability in the formulation process (XRPD before and after) [7]: unstable in the formulation process
